Patent US10253085B2, “CD31 peptides for the treatment of thrombotic or autoimmune disorders” (INSERM (INSTITUT NATIONAL DE LA SANTE ET DE LA RECHERCHE …, priority 2008, dated 2019)
Residues, ends and D or L forms follow the SMILES beside them.

What was measured:
[1] = system: scramble peptide; experiment: Surface plasmon resonance (BIAcore), channel coated with the scramble peptide; format: binding; details: injection of soluble peptide
[2] = system: BALB/c mice primed with TNCB; experiment: Delayed type hypersensitivity (DTH) suppression model; format: in vivo, mouse
Procedure: Delayed type hypersensitivity (DTH) suppression was evaluated as described in the “Current Protocols in Immunology (2001) 4.0.1-4.0.2 Unit 4.2”. Briefly, TNCB (2-chloro-1,3,5-trinitrobenzene, Fluka #79874) was dissolved in acetone/olive oil (1:1 v/v) at a concentration of 10 mg/ml. BALB/c mice (n=6/group) were primed by painting the shaved regions of the abdomen a with a total 0.2 ml of the preparation (n=6/group). The experiment included 3 groups for peptide 551-574 (10, 50, 100 μM) and 1 group treated with scramble peptide at 100 μM). Five days after priming, 10 μl of the TNCB-solvent mixture was painted on the right pinna, 30 minutes after subcutaneous (interscapolar) administration of the peptide 551-574 or the scramble peptide. Ear thickness increases were calculated by subtracting the thickness of the right and the left pinna of each mouse (right-left/left×100), measured at 24 h with a dial caliper (“Pocotest”, Kroeplin Längenmesstechnick). The measure was performed 5 times on each ear and averaged for further analysis. The immunosuppressive effect of the peptide was calculated as % suppression=(1−ΔTE/ΔTS)×100, where ΔT=(ear thickness 24 hr after elicitation)−(baseline ear thickness), […]. Data are expressed as mean±SEM.

[3] = system: apolipoprotein E^−/− mice; experiment: Angiotensin II infusion into aged apolipoprotein E-/- mice: atherosclerotic lesion size and aneurysm formation; format: in vivo, mouse
Procedure: Male 28-week old apolipoprotein E^−/− mice (n=8-10 mice/group) from our breeding facility were maintained on a regular chow diet and kept under standard conditions. Acceleration of atherosclerosis and aneurysm formation was induced by subcutaneous angiotensin II (Sigma, #A9525) infusion (1 mg/kg/d) for 28 days using osmotic minipumps (Alzet, #2004) as previously described (Daugherty et al. J Clin Invest 105:1605-1612). All experiments were approved by our institutional Ethical committee. Atherosclerotic lesion size was measured as previously described (Caligiuri et al. 2005 Arterioscler Thromb Vasc Biol 25:1659-1664). These experiments were repeated twice with similar results.

[4] = system: MMP-2/9 (gelatinase) activity in bone-marrow derived macrophages; experiment: Macrophage gelatinase (MMP-2/9) activity; format: cell-based, mouse; details: peptide 50 μM
Procedure: CD8^+ T cell-mediated cytolytic activity against allogeneic mouse aortic smooth muscle cells and measurement of macrophage gelatinase (MMP-2/9) activity were performed as previously described for human cells in Caligiuri et al. (2006 Arterioscler Thromb Vasc Biol 26:618-623) using kits and reagents from Invitrogen. Briefly, primary cultures of FVB/N mouse aorta smooth muscle cells were labelled with the lipophylic tracer DIO (green) and co-cultured for 3 hours with CD8+ T cell-enriched spleen cells from C57Bl/6 mice (n=3 scramble peptide and n=3 peptide 551-574, 50 μM). Cytolysis was evaluated by intracellular accumulation of propidium iodide (PI). Cells were analysed by flow cytometry and the % of cytolysis was calculated by expressing the number of dead (PI+) cells among the target (DIO+) cells. Intracellular MMP-2/9 (gelatinase) activity was measured by flow cytometry in 7-day bone-marrow derived macrophages from C57Bl/6 mice (n=3 scramble peptide and n=3 peptide 551-574, 50 μM) three hours after the incorporation of OregonGreen® gelatine (MFI). […] (^3H) thymidine (0.5 μCi/well) was added for the last 16 hours and proliferation evaluated using a Tomtec harvester and analysis on a Wallac micro beta counter. Data are expressed as mean±SEM of cpm in triplicates.

## CSCC[C@H](NC(=O)[C@H](CO)NC(=O)[C@@H](N)CO)C(=O)N[C@@H](CCCNC(=N)N)C(=O)N[C@H](C(=O)N[C@@H](CO)C(=O)N1CCC[C@H]1C(=O)N[C@@H](CCCNC(=N)N)C(=O)N[C@@H](CO)C(=O)N[C@@H](CO)C(=O)N[C@H](C(=O)N[C@@H](CC(C)C)C(=O)N[C@@H](C)C(=O)N[C@H](C(=O)N[C@@H](CCCNC(=N)N)C(=O)N[C@H](C(=O)N[C@@H](Cc1ccccc1)C(=O)N[C@@H](CC(C)C)C(=O)N[C@@H](C)C(=O)N1CCC[C@H]1C(=O)N[C@@H](Cc1c[nH]c2ccccc12)C(=O)N[C@@H](CCCCN)C(=O)N[C@@H](CCCCN)C(=O)O)C(C)C)C(C)C)[C@@H](C)O)[C@@H](C)O [peptide 551-574] (H-SSMRTSPRSSTLAVRVFLAPWKK-OH)
[1]
  signal on a channel coated with the scramble peptide: negligible signal
[2]; single subcutaneous administration of 50 μM
  immunosuppression in DTH model: Effective immunosuppression
[2]; single subcutaneous administration, peptide 10, 50, 100 μM, scramble 100 μM
  suppression of distal recall of a hapten-elicited specific immune response (ear thickness): suppressed in a dose-dependent manner
[3]; daily subcutaneous administration of 50 μM
  formation of atherothrombotic abdominal aortic aneurysms (AAA): prevented
[3]; daily subcutaneous administration of 50 μM, 28 days angiotensin II
  acceleration of plaque growth in the aortic root: prevented
[3]; peptide-treated mice, both experiments (Exp #1, Exp #2), controls 8/10 and 6/8
  mice with abdominal aortic aneurysm (AAA) present: 1/8
[4]
  activity of matrix degrading enzymes (MMP-2/9) in bone-marrow derived macrophages: inhibited
